Data: US20130005568A1, “SAFENED HERBICIDAL MIXTURES” (E.I. DU PONT DE NEMOURS AND COMPANY, priority 2011, published 2013)

How the values were obtained:
[1] = tested on: winter barley; experiment: Test F: preemergence plant response rating; format: in vivo, Hordeum vulgare L.; conditions: Compound 1 alone 125 g ai/ha; Test F plants
Description: (§1) For all of the following biological tests, plant response ratings were based on a 0-100 scale where zero is growth equivalent to that of untreated plants (no plant response) and 100 represents no additional growth occurring after herbicide treatment.
Herbicide mixtures were formulated, dissolved/dispersed in water, and sprayed preemergence to the crops: winter wheat (Triticum aestivum L.) and winter barley (Hordeum vulgare L.), and the weed: blackgrass (Alopecurus myosuroides Huds). Treated plants were grown under greenhouse conditions for three weeks before visual evaluations of plant responses were recorded.

[2] = tested on: Hard fescue; experiment: Test G: turf grass and weed postemergence plant response rating; format: in vivo, Festuca species; conditions: Compound 1 alone 125 g ai/ha; Test G plants
Description: as §1
(§2) Plants of the turf grass species: zoysia (Zoysia japonica Steud.), bermudagrass (Cynodon dactylon (L.) Pers.), tall fescue (Festuca arundinacea Shreib.), creeping bentgrass (Agrostis stoonoifera L.), perennial ryegrass (Lolium perenne L.) and hard fescue (Festuca species) were grown under greenhouse conditions for four months. Plants were clipped as needed to plant heights of 5-10 cm. Weeds typically found in turf: annual bluegrass (Poa annua L.), common chickweed (Stellaria media (L.) Vill.), large crabgrass (Digitaria sanguinales (L.) Scop.), dandelion (Taraxacum officinale Weber in Wiggers), goosegrass (Eleusine indica (L.) Gaertn.), henbit (Lamium amplexicaule L.), venice mallow (Hibiscus trionium L.) and purple nutsedge (Cyperus rotundus L.) were also grown under greenhouse conditions so that plants were 5-20 cm tall when they were treated. Herbicide mixtures were formulated, dissolved/dispersed in water containing 0.25% non-ionic surfactant, and sprayed postemergence to these turf grasses and weeds. Treated plants were grown under greenhouse conditions for three weeks before visual evaluations of plant responses were recorded.

[3] = tested on: Henbit; experiment: as above; format: in vivo, Lamium amplexicaule L.; conditions: Compound 1 alone 125 g ai/ha; Test G plants
Description: as §1, §2

[4] = tested on: Bermudagrass; experiment: as above; format: in vivo, Cynodon dactylon (L.) Pers.; conditions: Compound 1 alone 125 g ai/ha; Test G plants
Description: as §1
Plants of the turf grass species: zoysia (Zoysia japonica Steud.), bermudagrass (Cynodon dactylon (L.) Pers.), tall fescue (Festuca arundinacea Shreib.), creeping bentgrass (Agrostis stoonoifera L.), perennial ryegrass (Lolium perenne L.) and hard fescue (Festuca species) were grown under greenhouse conditions for four months. Plants were clipped as needed to plant heights of 5-10 cm. […] Herbicide mixtures were formulated, dissolved/dispersed in water containing 0.25% non-ionic surfactant, and sprayed postemergence to these turf grasses and weeds. Treated plants were grown under greenhouse conditions for three weeks before visual evaluations of plant responses were recorded.

[5] = tested on: Alexandergrass; experiment: Test K: pasture grass postemergence plant response rating, field conditions; format: in vivo, Brachiaria plantaginea (Link) A. S. Hitchc.; conditions: Compound 1 alone 140 g ai/ha; Test K plants
Description: as §1
(§3) Herbicide mixtures were formulated, dissolved/dispersed in water containing 0.25% non-ionic surfactant, and sprayed postemergence to the pasture grasses: Surinam grass (Brachiaria decumbens Stapf), palisade grass (Brachiaria brizantha (Hochst. ex A. Rich) Stapf) and Alexandergrass (Brachiaria plantaginea (Link) A. S. Hitchc.) approximately 10-30 cm tall (extended leaf height). This test was conducted under field conditions. Visual evaluations of plant responses were recorded four weeks after the plants were treated.

[6] = tested on: Tall fescue; experiment: Test G: turf grass and weed postemergence plant response rating; format: in vivo, Festuca arundinacea Shreib.; conditions: Compound 1 alone 125 g ai/ha; Test G plants
Description: as §1, §2

[7] = tested on: Goosegrass; experiment: as above; format: in vivo, Eleusine indica (L.) Gaertn.; conditions: Compound 1 alone 125 g ai/ha; Test G plants
Description: as §1, §2

[8] = tested on: sugarcane; experiment: Test J: sugarcane postemergence plant response rating, field conditions; format: in vivo, Saccharum officinarum L.; conditions: Compound 1 alone 140 g ai/ha; Test J
Description: as §1
Herbicide mixtures were formulated, dissolved/dispersed in water containing 0.25% non-ionic surfactant, and sprayed postemergence to sugarcane (Saccharum officinarum L.) approximately 20-40 cm tall (extended leaf height). This test was conducted under field conditions. Visual evaluations of plant responses were recorded four weeks after the plants were treated.

[9] = tested on: spring wheat; experiment: Test E: postemergence plant response rating; format: in vivo, Triticum aestivum L.; conditions: Compound 1 alone 125 g ai/ha; Test E plants
Description: as §1
(§4) Herbicide mixtures were formulated, dissolved/dispersed in water containing 0.25% non-ionic surfactant, sprayed postemergence to the crops: winter wheat (Triticum aestivum L.), spring wheat (Triticum aestivum L.), winter barley (Hordeum vulgare L.) and spring barley (Hordeum vulgare L.), and the weeds: blackgrass (Alopecurus myosuroides Huds.), lambsquarters (Chenopodium album L.) and pigweed (Amaranthus retroflexus L.). Treated plants were grown under greenhouse conditions for two weeks before visual evaluations of plant responses were recorded.

[10] = tested on: winter wheat; experiment: Test E: postemergence plant response rating; format: in vivo, Triticum aestivum L.; conditions: Compound 1 alone 125 g ai/ha; Test E plants
Description: as §1, §4

[11] = tested on: Dandelion; experiment: Test G: turf grass and weed postemergence plant response rating; format: in vivo, Taraxacum officinale Weber in Wiggers; conditions: Compound 1 alone 125 g ai/ha; Test G plants
Description: as §1, §2

[12] = tested on: velvetleaf; experiment: Test I: postemergence plant response rating; format: in vivo, Abutilon theophrasti Medik.; conditions: Compound 1 alone 125 g ai/ha; Test I plants
Description: as §1
(§5) Herbicide mixtures were formulated, dissolved/dispersed in water containing 0.25% non-ionic surfactant, and sprayed postemergence to the crop: soybean (Glycine max (L.) Merr.) at the 2-leaf growth stage and to weeds: lambsquarters (Chenopodium album L.) and velvetleaf (Abutilon theophrasti Medik.). Weed species were 5-10 cm tall when treated. Treated plants were grown under greenhouse conditions for two weeks before visual evaluations of plant responses were recorded.

[13] = tested on: Annual bluegrass; experiment: Test G: turf grass and weed postemergence plant response rating; format: in vivo, Poa annua L.; conditions: Compound 1 alone 125 g ai/ha; Test G plants
Description: as §1, §2

[14] = tested on: spring barley; experiment: Test E: postemergence plant response rating; format: in vivo, Hordeum vulgare L.; conditions: Compound 1 alone 125 g ai/ha; Test E plants
Description: as §1, §4

[15] = tested on: winter barley; experiment: Test E: postemergence plant response rating; format: in vivo, Hordeum vulgare L.; conditions: Compound 1 alone 125 g ai/ha; Test E plants
Description: as §1, §4

[16] = tested on: Pioneer 39K40 hybrid maize; experiment: Test B: visual plant response rating, postemergence herbicides with Compound 1 rate series; format: in vivo, Zea mays L. spp. indentata Sturt.; conditions: Compound 1 alone 125 g ai/ha; Test B
Description: as §1
Herbicide mixtures were dissolved/dispersed in a non-phytotoxic liquid carrier and were sprayed postemergence to Pioneer 39K40 hybrid maize (Zea mays L. spp. indentata Sturt.) in the third collar growth stage (extended leaf height was 50-60 cm). Treated plants were grown under greenhouse conditions for two weeks before visual evaluations of plant responses were recorded.

[17] = tested on: lambsquarters; experiment: Test I: postemergence plant response rating; format: in vivo, Chenopodium album L.; conditions: Compound 1 alone 125 g ai/ha; Test I plants
Description: as §1, §5

[18] = tested on: Perennial ryegrass; experiment: Test G: turf grass and weed postemergence plant response rating; format: in vivo, Lolium perenne L.; conditions: Compound 1 alone 125 g ai/ha; Test G plants
Description: as §1, §2

[19] = tested on: Venice mallow; experiment: as above; format: in vivo, Hibiscus trionium L.; conditions: Compound 1 alone 125 g ai/ha; Test G plants
Description: as §1, §2

[20] = tested on: palisade grass; experiment: Test K: pasture grass postemergence plant response rating, field conditions; format: in vivo, Brachiaria brizantha (Hochst. ex A. Rich) Stapf; conditions: Compound 1 alone 140 g ai/ha; Test K plants
Description: as §1, §3

Measured: injury, Compound 1 alone

Cc1ccccc1S(=O)(=O)NC(N)=O [Compound 1, N-(aminocarbonyl)-2-methylbenzenesulfonamide]
no injury: all assays above
